# Source: patent US10463713B2, “Use of AAC-11 inhibitors for the treatment of viral infection” (INSERM (Institut National de la Sante et de la Recherche …, priority 2016, dated 2019)
# Key:
# cancer cells = assay: Annexin-V/PI cell death of cancer cell lines under low-serum stress; type: cell-based; settings: 24 hours, increasing concentrations (FIG. 1)
# Description: (§1) The indicated cell lines or blood cells from healthy donors were treated for 24 hours in a 37° C. incubator (5% CO2) with increasing concentrations of the Antp-AAC-11-LZ (377-399) before Annexin-V and PI staining. The percentages refer to Annexin-V-positive or Annexin-V-positive/PI-positive staining.
# (§2) Detection of phosphatidylserine on apoptotic cells was performed by using an AnnexinV/propidium iodide (PI) detection kit (Beckman Coulter, Immunotech, Marseille, France) according to the manufacturer. Briefly, 5×10^5 cells were incubated in the dark at 4° C. with Annexin V-fluorescein isothiocyanate (FITC) and 2.5 μg/mL PI in phosphate buffer for 10 minutes before 18 000 ungated events were collected within the hour by flow cytometry (FACScalibur, BD Biosciences, Mansfield, Mass.) and analyzed with the ProCellQuest software provided by the manufacturer. In HIV-1 infection assays (see below), cell viability was determined with the help of LIVE/DEAD® Fixable Aqua stain kit as recommended by the manufacturer (Molecular Probes, Life Technologies, Saint Aubin, France).
# [1] = system: normal cells (blood cells from healthy donors); assay: Annexin-V/PI cell death of normal cells / blood cells from healthy donors under low-serum stress; type: cell-based; settings: 24 hours, increasing concentrations, blood cells from healthy donors (FIG. 1)
# Description: as §1, §2
# HIV-1 BaL [2] = type: cell-based; settings: three days; for HIV-1 replication (p24 antigen in supernatants) / elimination of HIV infected CD4+ T cells: 6 μM peptide, HIV-1 BaL, CD4+ T cells (FIG. 3); for HIV-1 replication (p24 antigen in supernatants) / elimination of HIV infected human CD4+ T cells: increasing amounts of peptide, HIV-1BaL, human CD4+ T cells (FIG. 4A upper panel)
# HIV-1BX08 = type: cell-based; settings: increasing amounts of peptide, three days, primary strain HIV-1BX08, human CD4+ T cells (FIG. 4A bottom panel)
# SIVmac251 = type: cell-based, SIVmac; settings: increasing amounts of peptide, three days, macaque CD4+ T cells (FIG. 4B)
# VSV-G HIV-1-particles = type: cell-based
# HIV-1 BaL [3] = type: cell-based; settings: 4 or 8 μM; added 10 minutes before infection and washed after two hours, or added two hours after infection and kept three days (FIG. 6)
Substance,cell death (Annexin-V-positive or Annexin-V-positive/PI-positive staining) of cancer cells (cancer cells),cell death (Annexin-V-positive or Annexin-V-positive/PI-positive staining) of normal cells [1],HIV-1 replication (p24 antigen in supernatants) / elimination of HIV infected CD4+ T cells (HIV-1 BaL [2]),HIV-1 replication (p24 antigen in supernatants) / elimination of HIV infected human CD4+ T cells (HIV-1 BaL [2]),HIV-1 replication (p24 antigen in supernatants) / elimination of HIV infected human CD4+ T cells (HIV-1BX08),SIVmac251 replication (p27 antigen in supernatants) / elimination of SIVmac infected macaque CD4+ T cells (SIVmac251),percentage of GFP+ (infected) cells and of viable cells / elimination of HIV infected CD4+ T cells (VSV-G HIV-1-particles),HIV-1 infection of human macrophages (HIV-1 BaL [3])
Ac-RQIKIWFKKQNRRMKWKKLQYFARGLQVYIRQLRLALQGKT-NH2 [RT39],induced cancer cells,but not normal cells,induce the selective elimination,induce the selective elimination,induce the selective elimination,induce the selective elimination,induce the selective elimination,
RQIKIWFKKQNRRMKWKKAKLNAEKLKDFKIRLQYFARGLQVYIRQLRLALQGKT (Synthetic Antp-AAC-11-LZ (363-399) (RT53)),,,induce the selective elimination,induce the selective elimination,induce the selective elimination,induce the selective elimination,induce the selective elimination,block HIV-1 infection in human macrophages
RQIKIWFKKQNRRMKWKKYFARGLQVYIRQL (Synthetic Antp-AAC-11-LZ (379-391) (RL29)),,,induce the selective elimination,,,,,
